Laboratory results taken from patent publication US20080139388A1, “Synergistic Insecticide Mixtures” (priority 2004, published 2008).

Legend:
Myzus persicae = Myzus persicae test (cabbage leaf dip); type: in vivo
Description: (§1) Formula for the calculation of the kill rate of a combination of two active compounds
(§2) The expected activity for a given combination of two active compounds can be calculated (cf. COLBY, S. R.; “Calculating Synergistic and Antagonistic Responses of Herbicide Combinations”, Weeds 15, pages 20-22, 1967):
(§3) if • X=the kill rate, expressed in % of the untreated control, when employing active compound A at an application rate of m ppm, • Y=the kill rate, expressed in % of the untreated control, when employing active compound B at an application rate of n ppm, • E=the kill rate, expressed in % of the untreated control, when employing active compounds A and B at application rates of m and n ppm, then
(§4) If the actual insecticidal kill rate is higher than the calculated one, the kill rates of the combination are superadditive, i.e. a synergistic effect is present. In this case, the kill rate that is actually observed has to be higher than the value, calculated using the formula above, for the expected kill rate (E).
Solvent: 7 parts by weight of dimethylformamide Emulsifier: 2 parts by weight of alkylaryl polyglycol ether
To produce a suitable preparation of active compound, 1 part by weight of active compound is mixed with the stated amounts of solvent and emulsifier, and the concentrate is diluted with emulsifier-containing water to the desired concentration.
Cabbage leaves (Brassica oleracea) which are heavily infested by the green peach aphid (Myzus persicae) are treated by being dipped into the preparation of active compound of the desired concentration.
After the desired period of time, the kill in % is determined. 100% means that all aphids have been killed; 0% means that none of the aphids have been killed. The determined kill rates are entered into Colby's formula.

[1] = tested on: Plutella xylostella (normally sensitive strain); experiment: Plutella xylostella test, normally sensitive strain (cabbage leaf dip); type: in vivo; details: 20 ppm
Description: as §1, §2, §3, §4
To produce a suitable preparation of active compound, 1 part by weight of active compound is mixed with the stated amounts of solvent and emulsifier, and the concentrate is diluted with emulsifier-containing water to the desired concentration. […]
After the desired period of time, the kill in % is determined. […] The determined kill rates are entered into Colby's formula (see sheet 1).

Structure (SMILES): C/C(=N\C#N)N(C)Cc1ccc(Cl)nc1 [acetamiprid]
- Kill in % after 6 days (Myzus persicae; 0.16 ppm): 30%

Structure (SMILES): CN/C(=N\[N+](=O)[O-])NCc1cnc(Cl)s1 [clothianidin]
- Kill in % after 1 day (Myzus persicae; 0.16 ppm, after 1 day (Table A2)): 0%

Structure (SMILES): CNC(=O)Oc1cc(C)c(SC)c(C)c1 [methiocarb, 3,5-dimethyl-4-(methylthio)phenyl methylcarbamate]
- Kill in % after 3 days [1]: 0%
- Kill in % after 1 day (Myzus persicae; 20 ppm, after 1 day (Table A2)): 5%
- Kill in % after 1 day (Myzus persicae; 20 ppm, after 1 day (Table A3)): 5%
- Kill in % after 6 days (Myzus persicae; 100 ppm): 50%

Structure (SMILES): N#C/N=C1\SCCN1Cc1ccc(Cl)nc1 [thiacloprid]
- Kill in % after 3 days [1]: 0%
- Kill in % after 1 day (Myzus persicae; 0.8 ppm, after 1 day (Table A3)): 20%
